The assay has as its system PC-3 cells. Nature of the assay: PC-3 cell proliferation, WST-1. Type of assay: cell-based, human. The settings on record: 100 pM-1 μM, WST-1 at days 3, 5, 7, 9; statistically significant with all doses above 100 pM. How it is done: We have studied the effects of Val201 on cell proliferation of the ER positive human prostate cancer cell line PC-3 in vitro and growth and metastatis in vivo in an orthotopic xenograft model. The proliferation effects were studied for 100 pM, 1 nM, 10 nM, 100 nM and 1 μM concentrations of VAL201 by measuring WST-1 values at days 3, 5, 7 and 9. Groups with vehicle and 1 μM gemcitabine as reference compound were included in the study. The xenograft study was performed with 6-7 week-old immunodeficient BALB/c nude mice that were allocated to 6 groups (with n=15/group) according to the body weight, one group receiving vehicle and the others VAL201 at doses 0.04, 0.4, 4, 10 and 20 mg/kg. PC-3 cells in Matrigel were inoculated orthotopically into the prostate. Subcutaneous dosing was started at day 1 and continued daily for 28 days. The mice were weighed twice a week. Orthotopic tumors were measured by calliper and the prostate and the regional lymph nodes were harvested at sacrifice. Metastases in lymph nodes were determined from HE stained paraffin sections.
(Formazan colour is commonly taken as a measure of viable cells.)

One substance from US10400008B2, “Modulators of the SRC-kinase activity for preventing or treating metastatic cancer” (Cancer Research Technology Limited, priority 2013, dated 2019) can be followed below.

For the substance Ac-PPPHPHARIK-NH2 [VAL001], the PC-3 cell proliferation entry is “dose-dependent inhibition”.
